# According to patent US20150374718A1, “Zhankuic Acid A and Analogs thereof and Their Use as an Anti-Inflammatory Agent” (National Cheng Kung University, priority 2014, published 2015):
# Entries after “also recorded” stand apart in the source; their conditions may differ.
# How the values were obtained:
# [1] = tested on: NF-κB, MAPK, and Akt signaling pathways; assay: Immunoblot of NF-κB, MAPK and Akt signaling in LPS-stimulated RAW264.7 cells; type: cell-based, murine; conditions: ZAA 1 h, then LPS 30 min
# Description: FIG. 1. ZAA inhibits the production of inflammation-related molecules in LPS- and IFN-γ-stimulated murine macrophages. […] Total cell lysates were subjected to immunoblotting for detecting COX2 and iNOS. Relative expression levels of COX2 and iNOS protein were quantified by densitometric analysis with ImageJ software and normalized according to the β-actin reference band. […] The presence of nitrite in the culture medium was analyzed by the Griess assay and used as an indication of NO levels (n=4; *p<0.05 and ***p<0.001 vs. LPS- or IFN-γ-induced cells). (C) Raw264.7 cells were cotransfected with pNFKB-Luc and pβ-actin-LacZ plasmids. […] Total cell lysates were harvested, and their luciferase activities were determined and normalized on the basis of β-galactosidase activities. […] Numbers below the blots in D and those shown in the table below the blots in E represent the relative expression levels quantified by densitometric analysis with ImageJ software and normalized according to the β-actin reference bands. […]
# Cell lysates were analyzed by immunoblotting with primary antibodies against pIKKα/β, IkBα, pNF-κBp65, pERK, ERK, pJNK, JNK, pAkt, Akt, pp38, p38, and β-actin, followed by appropriate secondary antibodies Immunoreactive protein bands were detected using an enhanced chemiluminescence (ECL) kit (Pierce Biotechnology, Rockford, Ill.). […]
# [2] = target: T1, recombinant human MD-2 (Homo sapiens, UniProt Q9Y6Y9); assay: Native PAGE binding analysis with anti-MD-2 antibodies; conditions: MD-2 0.15 μg, 3 h at 37° C.
# T1 construct: purchased R&D
# T1 sequence (Q9Y6Y9 19-160): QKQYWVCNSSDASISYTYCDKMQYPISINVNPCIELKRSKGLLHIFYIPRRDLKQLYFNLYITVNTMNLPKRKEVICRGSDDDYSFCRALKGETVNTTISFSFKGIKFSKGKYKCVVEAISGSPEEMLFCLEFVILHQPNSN
# Excerpt: FIG. 2. ZAA interacts with the hydrophobic binding pocket of MD-2. […] The amino acids G1y110-Asn158 shown in magenta, which reside within the immunogenic peptide fragment of MD-2 amino acids 110-160, are around the ZAA-binding site in the ribbon model of MD-2. Gly110 and Asn158 are indicated by arrows. (B) Interactions involved in the binding of ZAA to the hydrophobic amino acid residues within the MD-2 binding pocket are shown. […] Similar results were obtained in three independent experiments.
# Samples were subjected to native PAGE, and the levels of TLR4-associated or free MD-2 were detected by immunoblotting with two anti-MD-2 antibodies, rabbit polyclonal antibody against MD-2 amino acids 110-160 (abcam, Cambridge, Mass.) and mouse monoclonal antibody against MD-2 amino acids 2-160 (abcam). Signals were detected via ECL.
# [3] = tested on: S. choleraesuis; assay: S. choleraesuis growth in LB broth (absorbance at 600 nm); conditions: 24 or 48 h, various concentrations, listed as ZAA
# Description: S. choleraesuis was cultured in LB broth for 24 or 48 h in the presence of various concentrations of ZAA or ampicillin that served as a positive control. Bacterial growth was assessed by measurement of the absorbance at 600 nm and is expressed as means±SD of at least three independent experiments.
compound,measurement,setting,value
"C=C(CC[C@@H](C)[C@H]1CC[C@H]2C3=C(C(=O)C[C@]12C)[C@@]1(C)CCC(=O)[C@@H](C)[C@@H]1CC3=O)C(C)C(=O)O (stereo partly shown) [No. 1, Zhankuic acid A]","LPS-induced phosphorylation of ERK, JNK, p38, and Akt",[1],inhibited
same,LPS-stimulated NF-κBp65 phosphorylation,[1],significantly prevented
same,recognition of anti-MD-2 antibodies (aa 110-160 and 2-160) to native MD-2,[2],reduced the recognition of both antibodies to native MD-2
same,direct effect on growth / replication of Salmonella,[3],cannot inhibit; also recorded: no direct inhibitory effects
